Data set [1] can be described thus: FRAP assay for the antioxidant capacity. More on the design: key to FRAP: slope of concentration-absorbance line divided by Trolox slope. The conditions noted are these: for FRAP: stock in THF, acetate buffer pH 3.0, 37 °C, 15 min, ratio of slopes to trolox (melatonin in EtOH). In short, it runs like this: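 Fe^3+→Fe^2+ reduction by antioxidants (THF stocks) in FRAP reagent (FeCl3/TPTZ, 300 mM acetate buffer pH 3.0), 15 min at 37 °C in the dark. Absorbance at 600 nm measured in triplicate at 0-17.5 μM final. FRAP value = slope of absorbance-concentration line divided by Trolox slope.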

The nature of data set [2]: Hydrodynamic diameter and colloidal stability of aggregates by dynamic light scattering. It is filed as physicochemical. The conditions noted are these: for mean size (hydrodynamic diameter) / zeta potential: 37 °C; for PDI: sd^2/mean size^2. Summed up: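 Hydrodynamic diameter (number-weighted; PDI as sd^2/mean size^2) and zeta potential were measured by DLS at 173° scattering angle. Samples, 0.3125–5 µM DMSO solutions diluted into PBS, were examined after 6 min incubation at 37 °C.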

[3] abbreviates: 0.3125 μM in PBS from DMSO stock.
The mark [4] stands for this setting: 0.625 μM in PBS from DMSO stock.

For `CC1=C(/C=C/C(C)=C/C=C/C(C)=C/C=C/C=C(C)/C=C/C=C(\C)COC(=O)CCC(=O)O)C(C)(C)CCC1` [Compound 6, 8′-Apo-β-carotenol succinate], the “FRAP value relative to the succinates of the other carotenoids” value in data set [1] (acetate buffer pH 3.0) is reported as 1.5–2 times. In addition, the FRAP in data set [1] came out at 0.276. Further, the “mean size (hydrodynamic diameter)” value in data set [2] (setting [3]) is listed as 303.50 nm; in data set [2] (setting [4]), 395.10 nm; in data set [2] (1.25 μM in PBS from DMSO stock), 221.50 nm; in data set [2] (2.5 μM in PBS from DMSO stock), 26.74 nm; in data set [2] (3.75 μM in PBS from DMSO stock), 152.60 nm; in data set [2] (5 μM in PBS from DMSO stock), 144.20 nm. Moreover, the zeta potential is given as −8.2 mV in data set [2] (setting [3]); −10.2 mV in data set [2] (setting [4]); −17.7 mV in data set [2] (1.25 μM in PBS from DMSO stock); −30.5 mV in data set [2] (2.5 μM in PBS from DMSO stock); −12.3 mV in data set [2] (3.75 μM in PBS from DMSO stock); −27.5 mV in data set [2] (5 μM in PBS from DMSO stock). The PDI in data set [2] (0.3125 μM in PBS) stood at 0.0137; in data set [2] (0.625 μM in PBS) it was 0.0455; in data set [2] (1.25 μM in PBS), 0.0218; in data set [2] (2.5 μM in PBS), 0.0206; in data set [2] (3.75 μM in PBS), 0.0268; in data set [2] (5 μM in PBS), 0.0204.
Take `CC1=C(/C=C/C(C)=C/C=C/C(C)=C/C=C/C=C(C)/C=C/C=C(C)/C=C/C2=C(C)C[C@@H](OC(=O)CCC(=O)O)CC2(C)C)C(C)(C)C[C@H](OC(=O)CCC(=O)O)C1` [Compound 7, Zeaxanthin bissuccinate]: the FRAP in data set [1] is on record as 0.155. In addition, the “mean size (hydrodynamic diameter)” value in data set [2] (setting [3]) is given as 1050.00 nm; in data set [2] (setting [4]), 429.30 nm; in data set [2] (1.25 μM in PBS from DMSO stock), 544.50 nm; in data set [2] (2.5 μM in PBS from DMSO stock), 195.60 nm; in data set [2] (3.75 μM in PBS from DMSO stock), 44.78 nm; in data set [2] (5 μM in PBS from DMSO stock), 238.20 nm. For the same compound, the zeta potential was determined as 27.5 mV in data set [2] (setting [3]); 23.4 mV in data set [2] (setting [4]); 21.1 mV in data set [2] (1.25 μM in PBS from DMSO stock); 17.9 mV in data set [2] (2.5 μM in PBS from DMSO stock); 20.0 mV in data set [2] (3.75 μM in PBS from DMSO stock); 20.1 mV in data set [2] (5 μM in PBS from DMSO stock). In addition, the PDI in data set [2] (0.3125 μM in PBS) is 0.0407; in data set [2] (0.625 μM in PBS) it was 0.0162; in data set [2] (1.25 μM in PBS), 0.0294; in data set [2] (2.5 μM in PBS), 0.0202; in data set [2] (3.75 μM in PBS) it was 0.0267; in data set [2] (5 μM in PBS), 0.0270.
For `CC1=C(/C=C/C(C)=C/C=C/C(C)=C/C=C/C=C(C)/C=C/C=C(C)/C=C/C2=C(C)C[C@@H](OC(=O)CCC(=O)O)CC2(C)C)C(C)(C)CCC1` [Compound 8, β-Cryptoxanthin succinate], the FRAP in data set [1] was 0.181. Further, the “mean size (hydrodynamic diameter)” value turned out to be 11.04 nm in data set [2] (setting [3]); 25.68 nm in data set [2] (setting [4]); 31.94 nm in data set [2] (1.25 μM in PBS from DMSO stock); 34.03 nm in data set [2] (2.5 μM in PBS from DMSO stock); 468.90 nm in data set [2] (3.75 μM in PBS from DMSO stock); 14.19 nm in data set [2] (5 μM in PBS from DMSO stock). Moreover, the zeta potential in data set [2] (setting [3]) is listed as 34.1 mV; in data set [2] (setting [4]), 27.5 mV; in data set [2] (1.25 μM in PBS from DMSO stock) it was 21 mV; in data set [2] (2.5 μM in PBS from DMSO stock), 17.6 mV; in data set [2] (3.75 μM in PBS from DMSO stock), 2.55 mV; in data set [2] (5 μM in PBS from DMSO stock) it was −0.01 mV. The PDI in data set [2] (0.3125 μM in PBS) is 0.0168; in data set [2] (0.625 μM in PBS) it was 0.0307; in data set [2] (1.25 μM in PBS), 0.0723; in data set [2] (2.5 μM in PBS), 0.0360; in data set [2] (3.75 μM in PBS), 0.0131; in data set [2] (5 μM in PBS), 0.0339.

For the origin of these results see paper PMC9369794 (Molecules, 2022).
